Source: patent US11161852B1 (Halia Therapeutics, Inc., priority 2020, dated 2021)

target: full-length recombinant human NEK7 (Homo sapiens (Human), UniProt Q8TDX7); assay: NEK7 Enzymatic Assay ([33P]-ATP, casein substrate); assay type: biochemical
Experimental: Casein substrate (from bovine milk, hydrolyzed and partially dephosphorylated mixture of α, β and a caseins, obtained from Sigma Aldrich, catalogue #C4765, diluted in distilled water to a final concentration of 1 mg/mL) and full-length recombinant human NEK7 (expressed by baculovirus in Sf9 insect cells using a N-terminal GST tag, obtained from SignalChem, catalogue #N09-10G, 0.1 μg/μL) were mixed in assay buffer (20 mM Hepes pH 7.5, 10 mM MgCl2, 1 mM EGTA, 0.02% Brij35, 0.02 mg/ml BSA, 0.1 mM Na3VO4, 2 mM DTT, 1% DMSO). Compounds of interest (serial 3-fold dilution in DMSO from 10 μM to 0.5 nM) or vehicle (1% DMSO) were dispensed into the kinase reaction mixture by Acoustic technology (Echo550; nanoliter range). After incubation at room temperature for 20 minutes, the kinase reaction was initiated by addition of [^33P]-ATP (specific activity […]) and the mixture was incubated at room temperature for 2 hours. The reaction was then stopped by spotting the reaction mixture on strips of phosphocellulose P81 paper. Following washing, the radioactivity of the P81 paper was measured and kinase activity data were expressed as the percent remaining kinase activity in test samples compared to vehicle reactions. IC50 values and curve fits were obtained using Prism (GraphPad Software).

Chain of full-length recombinant human NEK7 (Q8TDX7 whole entry): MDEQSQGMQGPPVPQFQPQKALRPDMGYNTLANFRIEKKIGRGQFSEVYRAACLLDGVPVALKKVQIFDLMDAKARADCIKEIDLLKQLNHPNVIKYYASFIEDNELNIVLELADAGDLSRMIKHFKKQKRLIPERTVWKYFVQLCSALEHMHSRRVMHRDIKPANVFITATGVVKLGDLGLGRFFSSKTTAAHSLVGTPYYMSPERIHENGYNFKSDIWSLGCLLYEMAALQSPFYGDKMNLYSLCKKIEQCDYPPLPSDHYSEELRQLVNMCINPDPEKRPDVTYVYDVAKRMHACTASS

Structure (SMILES)	IC50
CC(C)(O)Cn1cc(-c2ccc(NC(=O)Nc3cc(C4(C(F)(F)F)CC4)no3)nc2)c2c(N)ncnc21 [Example 46, 1-(5-(4-amino-7-(2-hydroxy-2-methylpropyl)-7H-pyrrolo[2,3-d]pyrimidin-5-yl)pyridin-2-yl)-3-(3-(1-(trifluoromethyl)cyclopropyl)isoxazol-5-yl)urea]	< 0.15 µM
Nc1ncnc2c1c(-c1ccc(NC(=O)Nc3cc(C4(C(F)(F)F)CC4)no3)c(CO)c1)cn2C1CC1 [Example 49, 1-(4-(4-amino-7-cyclopropyl-7H-pyrrolo[2,3-d]pyrimidin-5-yl)-2-(hydroxymethyl)phenyl)-3-(3-(1-(trifluoromethyl)cyclopropyl)isoxazol-5-yl)urea]	> 1.5 µM
Cc1cc(-c2cn(C3CC3)c3ncnc(N)c23)ncc1NC(=O)Nc1cc(C2(C(F)(F)F)CC2)no1 [Example 40, 1-(6-(4-amino-7-cyclopropyl-7H-pyrrolo[2,3-d]pyrimidin-5-yl)-4-methylpyridin-3-yl)-3-(3-(1-(trifluoromethyl)cyclopropyl)isoxazol-5-yl)urea]	> 1.5 µM
Nc1ncnc2c1c(-c1ccc(NC(=O)Nc3cc(C4(C(F)(F)F)CC4)no3)c(F)c1)cn2-c1ccncc1 [Example 25]	0.501 to 1.5 µM
Nc1ncnc2c1c(-c1ccc(NC(=O)Nc3cc(C4(C(F)(F)F)CC4)no3)c(F)c1)cn2-c1cccnc1 [Example 24, 1-(4-(4-amino-7-(pyridin-3-yl)-7H-pyrrolo[2,3-d]pyrimidin-5-yl)-2-fluorophenyl)-3-(3-(1-(trifluoromethyl)cyclopropyl)isoxazol-5-yl)urea]	0.501 to 1.5 µM
Nc1ncnc2c1c(-c1ccc(NC(=O)Nc3cc(C4(C(F)(F)F)CC4)on3)c(F)c1)cn2C1CCC1 [Example 58, 1-(4-(4-amino-7-cyclobutyl-7H-pyrrolo[2,3-d]pyrimidin-5-yl)-2-fluorophenyl)-3-(5-(1-(trifluoromethyl)cyclopropyl)isoxazol-3-yl)urea]	0.501 to 1.5 µM
Nc1ncnc2c1c(-c1cc(F)c(NC(=O)Nc3cc(C4(C(F)(F)F)CC4)on3)c(F)c1)cn2C1CC1 [Example 60, 1-(4-(4-amino-7-cyclopropyl-7H-pyrrolo[2,3-d]pyrimidin-5-yl)-2,6-difluorophenyl)-3-(5-(1-(trifluoromethyl)cyclopropyl)isoxazol-3-yl)urea]	> 1.5 µM
Nc1ncnc2c1c(-c1cnc(NC(=O)Nc3cc(C4(C(F)(F)F)CC4)no3)nc1)cn2C1CC1 [Example 48, 1-(5-(4-amino-7-cyclopropyl-7H-pyrrolo[2,3-d]pyrimidin-5-yl)pyrimidin-2-yl)-3-(3-(1-(trifluoromethyl)cyclopropyl)isoxazol-5-yl)urea]	> 1.5 µM
CCC(CC)c1cc(NC(=O)Nc2ccc(-c3cn(C4CC4)c4ncnc(N)c34)cc2F)on1 [Example 31, 1-(4-(4-amino-7-cyclopropyl-7H-pyrrolo[2,3-d]pyrimidin-5-yl)-2-fluorophenyl)-3-(3-(pentan-3-yl)isoxazol-5-yl)urea]	0.301 to 0.5 µM
CC(C)(C)c1cc(NC(=O)Nc2ccc(-c3cn(C4CC4)c4ncnc(N)c34)cc2F)no1 [Example 4, 1-(4-(4-amino-7-cyclopropyl-7H-pyrrolo[2,3-d]pyrimidin-5-yl)-2-fluorophenyl)-3-(5-(tert-butyl)isoxazol-3-yl)urea]	< 0.15 µM

Now from value to compound:

IC50	Structure (SMILES)
0.501 to 1.5 µM	Cc1cc(NC(=O)Nc2ccc(-c3cn(C4CC4)c4ncnc(N)c34)cc2F)on1 [Example 7, 1-(4-(4-amino-7-cyclopropyl-7H-pyrrolo[2,3-d]pyrimidin-5-yl)-2-fluorophenyl)-3-(3-methylisoxazol-5-yl)urea]
0.151 to 0.3 µM	CC(C)(c1cc(NC(=O)Nc2ccc(-c3cn(C4CC4)c4ncnc(N)c34)cc2F)on1)C(F)(F)F [Example 12, 1-(4-(4-amino-7-cyclopropyl-7H-pyrrolo[2,3-d]pyrimidin-5-yl)-2-fluorophenyl)-3-(3-(1,1,1-trifluoro-2-methylpropan-2-yl)isoxazol-5-yl)urea]
> 1.5 µM	Nc1ncnc2c1c(-c1ccc(NC(=O)Nc3cc(C4(C(F)(F)F)CC4)no3)c(Cl)c1)cn2C1CC1 [Example 54, 1-(4-(4-amino-7-cyclopropyl-7H-pyrrolo[2,3-d]pyrimidin-5-yl)-2-chlorophenyl)-3-(3-(1-(trifluoromethyl)cyclopropyl)isoxazol-5-yl)urea]
< 0.15 µM	CCc1cc(NC(=O)Nc2ccc(-c3cn(C4CC4)c4ncnc(N)c34)cc2F)on1 [Example 33, 1-(4-(4-amino-7-cyclopropyl-7H-pyrrolo[2,3-d]pyrimidin-5-yl)-2-fluorophenyl)-3-(3-ethylisoxazol-5-yl)urea]
0.301 to 0.5 µM	Nc1ncnc2c1c(-c1ccc(NC(=O)Nc3cc(C4CC4)on3)c(F)c1)cn2C1CC1 [Example 6]
0.301 to 0.5 µM	CC(C)(C)c1cc(NC(=O)Nc2ccc(-c3cn(C4CC4)c4ncnc(N)c34)cc2)on1 [Example 13, 1-(4-(4-amino-7-cyclopropyl-7H-pyrrolo[2,3-d]pyrimidin-5-yl)phenyl)-3-(3-(tert-butyl)isoxazol-5-yl)urea]
0.301 to 0.5 µM	CN1CCC(n2cc(-c3ccc(NC(=O)Nc4cc(C5(C(F)(F)F)CC5)no4)c(F)c3)c3c(N)ncnc32)C1 (centres unmarked) [Example 56, 1-(4-(4-amino-7-(1-methylpyrrolidin-3-yl)-7H-pyrrolo[2,3-d]pyrimidin-5-yl)-2-fluorophenyl)-3-(3-(1-(trifluoromethyl)cyclopropyl)isoxazol-5-yl)urea]
0.301 to 0.5 µM	CC(C)(CO)c1cc(NC(=O)Nc2ccc(-c3cn(C4CC4)c4ncnc(N)c34)cc2F)on1 [Example 29, 1-(4-(4-amino-7-cyclopropyl-7H-pyrrolo[2,3-d]pyrimidin-5-yl)-2-fluorophenyl)-3-(3-(1-hydroxy-2-methylpropan-2-yl)isoxazol-5-yl)urea]
0.151 to 0.3 µM	CCC(C)c1cc(NC(=O)Nc2ccc(-c3cn(C4CC4)c4ncnc(N)c34)cc2F)on1 (centres unmarked) [Example 30, 1-(4-(4-amino-7-cyclopropyl-7H-pyrrolo[2,3-d]pyrimidin-5-yl)-2-fluorophenyl)-3-(3-(sec-butyl)isoxazol-5-yl)urea]
> 1.5 µM	Nc1ncnc2c1c(-c1ccc(NC(=O)Nc3cc(C4(C(F)(F)F)CC4)no3)cn1)cn2C1CC1 [Example 59, 1-(6-(4-amino-7-cyclopropyl-7H-pyrrolo[2,3-d]pyrimidin-5-yl)pyridin-3-yl)-3-(3-(1-(trifluoromethyl)cyclopropyl)isoxazol-5-yl)urea]
> 1.5 µM	CC(C)(C)c1nsc(NC(=O)Nc2ccc(-c3cn(C4CC4)c4ncnc(N)c34)cc2F)n1 [Example 21, 1-(4-(4-amino-7-cyclopropyl-7H-pyrrolo[2,3-d]pyrimidin-5-yl)-2-fluorophenyl)-3-(3-(tert-butyl)-1,2,4-thiadiazol-5-yl)urea]
< 0.15 µM	CC(C)c1cc(NC(=O)Nc2ccc(-c3cn(C4CC4)c4ncnc(N)c34)cc2F)on1 [Example 32, 1-(4-(4-amino-7-cyclopropyl-7H-pyrrolo[2,3-d]pyrimidin-5-yl)-2-fluorophenyl)-3-(3-isopropylisoxazol-5-yl)urea]
0.151 to 0.3 µM	CC(C)(C)c1cc(NC(=O)Nc2ccc(-c3cn(C4COC4)c4ncnc(N)c34)cc2)on1 [Example 1, 1-(4-(4-amino-7-(oxetan-3-yl)-7H-pyrrolo[2,3-d]pyrimidin-5-yl)phenyl)-3-(3-(tert-butyl)isoxazol-5-yl)urea]
